# Key:
# [1] = tested on: Human adenoid cystic carcinoma TGS112T cells; test: [3H]-thymidine incorporation; format: cell-based; details: 10^−7 M, 24 h
# Method: TGS112T cells were seeded in 24-well trays and exposed to 10% hormone-depleted FBS-supplemented medium for 2 d, then treated with 0.25% hormone-depleted FBS-supplemented medium prior to starting the experiments. Aliquots of cells were treated with T4, tetrac or nano-tetrac as indicated, as well as 1 μCi [^3H]-thymidine (final concentration, 13 nM) for 24 h. Cells were then washed twice with cold PBS. TCA (5%, 1 mL) was added and the plate was held at 4° C. for 30 min. The precipitate was washed twice with cold ethanol; 2% SDS (1 mL) was added to each well and the TCA-precipitable radioactivity was quantitated in a liquid scintillation counter.
# (§1) Human adenoid cystic carcinoma TGS112T cells were cultured in medium that contained 0.25% hormone-stripped serum for 2 d and then treated with 10^−7 M tetrac or nano-tetrac for 30 min prior institution of 10^−7 M T4 treatment for 24 h. Nuclear proteins were separated by SDS-PAGE followed by western blot analysis with proliferating-cell nuclear antigen (PCNA) antibody. Thyroid hormone-induced PCNA accumulation was inhibited by tetrac. (See FIG. 6A). […] (See FIG. 6A). Inhibition of thyroid hormone-induced proliferation was confirmed by inhibition by tetrac and nano-tetrac of thyroid hormone-induced accumulation and [^3H]-thymidine incorporation. (See FIG. 6B). […] (See FIG. 6B). […] The effect of nano-tetrac and tetrac on cell proliferation was examined by counting TGS112T cells which were treated daily with 10^−6 M tetrac or 10^−6 M nano-tetrac. […] (See FIG. 6C).
# [2] = tested on: Human adenoid cystic carcinoma TGS112T cells; test: PCNA western blot (thyroid hormone-induced proliferation); format: cell-based; details: 10^−7 M, 24 h
# Description: The techniques have been described in a number of publications. (See Davis et al., 2006. Cancer Res. 66:7270-7275; Lin et al., 2007. Steroids. 72:180-187; Lin et al., 2008. Carcinogenesis. 29:62-69; and Davis et al., 2004. Circ Res. 94:1500-1506, each of which is herein incorporated by reference in its entirety). Nucleoproteins were separated on discontinuous SDS-PAGE (9% gels) and the proteins transferred by electroblotting to nitrocellulose membranes (Millipore, Bedford, Mass.). After blocking with 5% milk in Tris-buffered saline containing 0.1% Tween, the membranes were incubated with selected primary antibodies overnight. The secondary antibodies were either goat anti-rabbit IgG (1:1000, Dako, Carpenteria, Calif.) or rabbit anti-mouse IgG (1:1000, Dako), depending upon the origin of the primary antibody. Immunoreactive proteins were then detected by chemiluminescence.
# as §1
compound,measurement,setting,value
"N[C@@H](Cc1cc(I)c(Oc2cc(I)c(O)c(I)c2)c(I)c1)C(=O)O [T4, L-thyroxine, reference compound]",effect of agent alone on thymidine incorporation,[1],increased thymidine incorporation
same,Proliferation of TGS112T cells (agent alone),[2],stimulated

# — patent US9180107B2 (NANOPHARMACEUTICALS LLC, priority 2009, dated 2015)
